“Also recorded” adds a separate entry of the source.
Legend:
[1] = Mortality with indomethacin in mice; format: in vivo, mouse; conditions: higher dose (5 mg/kg BID)
From the text: The propensity of NSAIDs to induce ulceration and bleeding often outweigh the anti-inflammatory benefits. […] NSAIDs that more selectively target Cox-2, such as roficoxib and celecoxib, are well tolerated and have been widely used as alternatives to broad spectrum NSAIDs for controlling inflammation. In addition, the selective agonism of PPAR-γ is an effective anti-inflammatory strategy, e.g., through administration of thiazolidinediones such as rosiglitazone or pioglitizone. […] Mice were started on a 16 day preventative course of oral NSAID and then challenged with a single IP injection of LPS (5 mg/kg) and then BrdU (50 mg/kg) over 6 days beginning 2 h after LPS. The mice were either perfused 28 days after LPS injection, or trained and tested in the Morris water maze.
NSAID treatment. One half of the saline- and LPS-treated mice were fed non-steroidal anti-inflammatory drug (NSAID), in low fat strawberry milk, twice per day for two weeks following LPS injection (Days 0-13). The mice were initially introduced to low fat strawberry milk (Berkeley Farms, Calif.; 200 μl per animal) in their home cages, four days before LPS was injected (Days […]) and were then placed in a PVC tube (10-cm diameter×18-cm height), twice per day (12 h apart) beginning two days before LPS was injected (Days −2 and −1) until they consumed a 100 μl volume of low fat strawberry milk. […]

[2] = test system: hippocampal neurogenesis; assay: 10 Gy cranial X-irradiation, microglial inflammation and hippocampal neurogenesis at 2 months; format: in vivo, rat
Description: Because rats are more radio resistant than humans, 10 Gy approximates a clinically relevant dose and is below the threshold to cause demyelination or overt vasculopathy in rats. This dose of X-irradiation was previously shown to spare roughly 30% of the NPC proliferative activity but completely ablate the production of neurons. X-irradiation was limited to a 1.5 cm cylinder centered over the cranium (remaining body parts were shielded). One month later, BrdU was administered systemically and at 2 months post-irradiation, brain tissues were analyzed for hippocampal neurogenesis.
Control animals were given either vehicle (5% bicarbonate) injections i.p. or plain dog food. To ensure complete consumption of food and medication in the 2 month paradigm, rats were restricted to 80% of their ad lib intake.
Irradiation Adult female Fisher 344 rats were anesthetized with ketamine and xylazine and exposed to cranial irradiation using a Philips orthovoltage X-ray system operated at 200 kVp and 20 mA. A single dose of 10 Gy was delivered to the cranium of each rat with shielding of the body, neck, eyes and snout. Dosimetry was done using TLD dosimeters (K & S Associates, Nashville, Tenn.) buried in the hippocampi, cerebellum, mouth, eyes and ears of euthanized rats. The corrected dose rate was approximately 44.5 cGy/minute. Sham-irradiated controls for all experiments received anesthesia only.
BrdU injections and tissue preparation. Animals were injected intraperitoneally with BrdU once each day for 6 days. Animals were then anesthetized and sacrificed on the 28th day after the initial BrdU injection by transcardial perfusion with 4% paraformaldehyde. Brains were removed and postfixed overnight and then equilibrated in phosphate buffered 30% sucrose. Free floating 40 μm sections were collected on a freezing microtome and stored in cryoprotectant as previously described.
Immunocytochemistry and immunofluorescent staining. […]
Cell counting and unbiased stereology. […] The proportion of BrdU cells displaying a lineage-specific phenotype was determined by scoring the co-localization of cell phenotype markers with BrdU using confocal microscopy. […] When possible, 100 or more BrdU-positive cells were scored for each marker per animal. Each cell was manually examined in its full “z”-dimension and only those cells for which the nucleus was unambiguously associated with the lineage-specific marker were scored as positive. The total number of BrdU-labeled cells per hippocampal granule cell layer and subgranule zone was determined using diaminobenzadine stained tissues. In a separate series, the total number of ED1-labeled cells per dentate gyrus was also determined using diaminobenzadine stained tissue. Stained BrdU-positive nuclei or ED1-positive cells were scored under light microscopy using Microbrightfield Stereo Investigator software and the Fractionator method. Overestimation was corrected using the Abercrombie method for nuclei with empirically determined average diameter of 13 μm within a 40 μm section.

For COc1ccc2c(c1)c(CC(=O)O)c(C)n2C(=O)c1ccc(Cl)cc1 [indomethacin], the mortality [1] was 100%, the “effect on cell fate in non-irradiated rats” value ([2]; indomethacin, non-irradiated) was “no effect” and the “effect on CD11b/NG2+ infiltrating peripheral monocytes” value ([2]; irradiated, indomethacin 2.5 mg/Kg orally every 12 hours) was “particularly effective at decreasing; also recorded: significantly reduced”. For the same molecule, the “proportion of proliferative cells adopting a neuronal fate” value ([2]; irradiated, indomethacin-treated (untreated irradiated 15%)) was 37%, the “total newborn hippocampal neurons” value ([2]; irradiated, indomethacin-treated (untreated irradiated 125±25)) was 360±68 newborn neurons and the “total BrdU+ proliferative cells per neurogenic region of the dentate gyrus” value ([2]; irradiated, indomethacin-treated (untreated irradiated 828±135)) was 958±136 proliferative cells.
